Experimental data from US9149038B2, “4-amino-6-(heterocyclic)picolinates and 6-amino-2-(heterocyclic)pyrimidine-4-carboxylates and their use as herbicides” (Dow AgroSciences LLC, priority 2013, dated 2015).
Where two headings read alike, the source gives them in different places.

Tested on: Wheat and Barley and weed species
Assay: Post-Emergent Test III: postemergent herbicidal activity in wheat and barley, visual rating after 21 d and probit GR20/GR50/GR80/GR90 (Tables 9-13)
Assay type: in vivo
Details: for pest or weed control at 17.5 g/ha / pest or weed control at 35 g/ha / pest or weed control at 70 g/ha: post-emergence, 504 h
How it was run: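 Greenhouse plants (~18/17 °C, 14 h photoperiod) at second–third true leaf stage sprayed at 187 L/ha with a high rate and ½× to 1/16× serial dilutions. Visual injury 0–100% versus solvent-blank controls scored at 21 d; GR20, GR50, GR80 and GR90 derived by probit analysis across rates.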

## Nc1c(F)c(-c2ccc(Cl)c3c2OC(F)(F)O3)nc(C(=O)O)c1Cl [Compound 82]
CIRAR Canada thistle (Cirsium arvense), 17.5 g ai/ha
  Visual Growth Reduction (%) 21 Days After Application CIRAR: B (85-94)
CIRAR Canada thistle (Cirsium arvense), 35 g ai/ha
  Visual Growth Reduction (%) 21 Days After Application CIRAR: B (85-94)
CIRAR Canada thistle (Cirsium arvense), 70 g ai/ha
  Visual Growth Reduction (%) 21 Days After Application CIRAR: B (85-94)
CIRAR Canada thistle (Cirsium arvense), growth reduction of 50%, probit analysis
  GR50 CIRAR: 1 g ai/ha
CIRAR Canada thistle (Cirsium arvense), growth reduction of 80%, probit analysis
  GR80 CIRAR: 10 g ai/ha
CIRAR Canada thistle (Cirsium arvense), growth reduction of 90%, probit analysis
  GR90 CIRAR: 34 g ai/ha
GALAP cleavers (Galium aparine), 17.5 g ai/ha
  Visual Growth Reduction (%) 21 Days After Application GALAP: D (60-74)
GALAP cleavers (Galium aparine), 35 g ai/ha
  Visual Growth Reduction (%) 21 Days After Application GALAP: B (85-94)
GALAP cleavers (Galium aparine), 70 g ai/ha
  Visual Growth Reduction (%) 21 Days After Application GALAP: B (85-94)
GALAP cleavers (Galium aparine), growth reduction of 50%, probit analysis
  GR50 GALAP: 10 g ai/ha
GALAP cleavers (Galium aparine), growth reduction of 80%, probit analysis
  GR80 GALAP: 33 g ai/ha
GALAP cleavers (Galium aparine), growth reduction of 90%, probit analysis
  GR90 GALAP: 64 g ai/ha
HORVS barley, spring (crop), growth reduction of 20%, probit analysis
  GR20 HORVS: 7 g ai/ha
Hordeum vulgare, HORVS barley, spring (crop), 17.5 g ai/ha, read-out: Visual Growth Reduction (%) 21 Days After Application HORVS
  pest or weed control at 17.5 g/ha: 30 to 44%
Hordeum vulgare, HORVS barley, spring (crop), 35 g ai/ha, read-out: Visual Growth Reduction (%) 21 Days After Application HORVS
  pest or weed control at 35 g/ha: 60 to 74%
Hordeum vulgare, HORVS barley, spring (crop), 70 g ai/ha, read-out: Visual Growth Reduction (%) 21 Days After Application HORVS
  pest or weed control at 70 g/ha: 75 to 84%
KCHSC kochia (Kochia scoparia), 17.5 g ai/ha
  Visual Growth Reduction (%) 21 Days After Application KCHSC: D (60-74)
KCHSC kochia (Kochia scoparia), 35 g ai/ha
  Visual Growth Reduction (%) 21 Days After Application KCHSC: C (75-84)
KCHSC kochia (Kochia scoparia), 70 g ai/ha
  Visual Growth Reduction (%) 21 Days After Application KCHSC: C (75-84)
KCHSC kochia (Kochia scoparia), growth reduction of 50%, probit analysis
  GR50 KCHSC: 2 g ai/ha
KCHSC kochia (Kochia scoparia), growth reduction of 80%, probit analysis
  GR80 KCHSC: 83 g ai/ha
KCHSC kochia (Kochia scoparia), growth reduction of 90%, probit analysis
  GR90 KCHSC: >140 g ai/ha
LAMPU purple deadnettle (Lamium purpureum), 17.5 g ai/ha
  Visual Growth Reduction (%) 21 Days After Application LAMPU: G (0-29)
LAMPU purple deadnettle (Lamium purpureum), 35 g ai/ha
  Visual Growth Reduction (%) 21 Days After Application LAMPU: G (0-29)
LAMPU purple deadnettle (Lamium purpureum), 70 g ai/ha
  Visual Growth Reduction (%) 21 Days After Application LAMPU: F (30-44)
LAMPU purple deadnettle (Lamium purpureum), growth reduction of 50%, probit analysis
  GR50 LAMPU: 89 g ai/ha
LAMPU purple deadnettle (Lamium purpureum), growth reduction of 80%, probit analysis
  GR80 LAMPU: 131 g ai/ha
LAMPU purple deadnettle (Lamium purpureum), growth reduction of 90%, probit analysis
  GR90 LAMPU: >140 g ai/ha
MATCH wild chamomile (Matricaria recutita L.), 17.5 g ai/ha
  Visual Growth Reduction (%) 21 Days After Application MATCH: C (75-84)
MATCH wild chamomile (Matricaria recutita L.), 35 g ai/ha
  Visual Growth Reduction (%) 21 Days After Application MATCH: C (75-84)
MATCH wild chamomile (Matricaria recutita L.), 70 g ai/ha
  Visual Growth Reduction (%) 21 Days After Application MATCH: B (85-94)
MATCH wild chamomile (Matricaria recutita L.), growth reduction of 50%, probit analysis
  GR50 MATCH: 18 g ai/ha
MATCH wild chamomile (Matricaria recutita L.), growth reduction of 80%, probit analysis
  GR80 MATCH: 35 g ai/ha
MATCH wild chamomile (Matricaria recutita L.), growth reduction of 90%, probit analysis
  GR90 MATCH: 49 g ai/ha
PAPRH common poppy (Papaver rhoeas), 17.5 g ai/ha
  Visual Growth Reduction (%) 21 Days After Application PAPRH: G (0-29)
PAPRH common poppy (Papaver rhoeas), 35 g ai/ha
  Visual Growth Reduction (%) 21 Days After Application PAPRH: G (0-29)
PAPRH common poppy (Papaver rhoeas), 70 g ai/ha
  Visual Growth Reduction (%) 21 Days After Application PAPRH: F (30-44)
PAPRH common poppy (Papaver rhoeas), growth reduction of 50%, probit analysis
  GR50 PAPRH: 113 g ai/ha
PAPRH common poppy (Papaver rhoeas), growth reduction of 80%, probit analysis
  GR80 PAPRH: >140 g ai/ha
PAPRH common poppy (Papaver rhoeas), growth reduction of 90%, probit analysis
  GR90 PAPRH: >140 g ai/ha
SASKR Russian thistle (Salsola iberica), 17.5 g ai/ha
  Visual Growth Reduction (%) 21 Days After Application SASKR: B (85-94)
SASKR Russian thistle (Salsola iberica), 35 g ai/ha
  Visual Growth Reduction (%) 21 Days After Application SASKR: B (85-94)
SASKR Russian thistle (Salsola iberica), 70 g ai/ha
  Visual Growth Reduction (%) 21 Days After Application SASKR: B (85-94)
SASKR Russian thistle (Salsola iberica), growth reduction of 50%, probit analysis
  GR50 SASKR: 1 g ai/ha
SASKR Russian thistle (Salsola iberica), growth reduction of 80%, probit analysis
  GR80 SASKR: 10 g ai/ha
SASKR Russian thistle (Salsola iberica), growth reduction of 90%, probit analysis
  GR90 SASKR: 32 g ai/ha
SINAR wild mustard (Sinapis arvensis), 17.5 g ai/ha
  Visual Growth Reduction (%) 21 Days After Application SINAR: A (95-100)
SINAR wild mustard (Sinapis arvensis), 35 g ai/ha
  Visual Growth Reduction (%) 21 Days After Application SINAR: A (95-100)
SINAR wild mustard (Sinapis arvensis), 70 g ai/ha
  Visual Growth Reduction (%) 21 Days After Application SINAR: A (95-100)
SINAR wild mustard (Sinapis arvensis), growth reduction of 50%, probit analysis
  GR50 SINAR: 0.02 g ai/ha
SINAR wild mustard (Sinapis arvensis), growth reduction of 80%, probit analysis
  GR80 SINAR: 0.5 g ai/ha
SINAR wild mustard (Sinapis arvensis), growth reduction of 90%, probit analysis
  GR90 SINAR: 2 g ai/ha
TRZAS wheat, spring (crop), growth reduction of 20%, probit analysis
  GR20 TRZAS: 4 g ai/ha
Triticum aestivum, TRZAS wheat, spring (crop), 17.5 g ai/ha, read-out: Visual Growth Reduction (%) 21 Days After Application TRZAS
  pest or weed control at 17.5 g/ha: 60 to 74%
Triticum aestivum, TRZAS wheat, spring (crop), 35 g ai/ha, read-out: Visual Growth Reduction (%) 21 Days After Application TRZAS
  pest or weed control at 35 g/ha: 60 to 74%
Triticum aestivum, TRZAS wheat, spring (crop), 70 g ai/ha, read-out: Visual Growth Reduction (%) 21 Days After Application TRZAS
  pest or weed control at 70 g/ha: 75 to 84%
VERPE bird's-eye speedwell (veronica persica), 17.5 g ai/ha
  Visual Growth Reduction (%) 21 Days After Application VERPE: G (0-29)
VERPE bird's-eye speedwell (veronica persica), 35 g ai/ha
  Visual Growth Reduction (%) 21 Days After Application VERPE: G (0-29)
VERPE bird's-eye speedwell (veronica persica), 70 g ai/ha
  Visual Growth Reduction (%) 21 Days After Application VERPE: G (0-29)
VERPE bird's-eye speedwell (veronica persica), growth reduction of 50%, probit analysis
  GR50 VERPE: >140 g ai/ha
VERPE bird's-eye speedwell (veronica persica), growth reduction of 80%, probit analysis
  GR80 VERPE: >140 g ai/ha
VERPE bird's-eye speedwell (veronica persica), growth reduction of 90%, probit analysis
  GR90 VERPE: >140 g ai/ha
VIOTR wild pansy (Viola tricolor), 17.5 g ai/ha
  Visual Growth Reduction (%) 21 Days After Application VIOTR: E (45-59)
VIOTR wild pansy (Viola tricolor), 35 g ai/ha
  Visual Growth Reduction (%) 21 Days After Application VIOTR: D (60-74)
VIOTR wild pansy (Viola tricolor), 70 g ai/ha
  Visual Growth Reduction (%) 21 Days After Application VIOTR: D (60-74)
VIOTR wild pansy (Viola tricolor), growth reduction of 50%, probit analysis
  GR50 VIOTR: 31 g ai/ha
VIOTR wild pansy (Viola tricolor), growth reduction of 80%, probit analysis
  GR80 VIOTR: 62 g ai/ha
VIOTR wild pansy (Viola tricolor), growth reduction of 90%, probit analysis
  GR90 VIOTR: 90 g ai/ha
